According to patent US20160002247A1, “8-SUBSTITUTED IMIDAZOPYRIMIDINONE DERIVATIVE HAVING AUTOTAXIN INHIBITORY ACTIVITY” (THE UNIVERSITY OF TOKYO, priority 2013, published 2016):

Target: T1, Human autotaxin enzyme (Homo sapiens, UniProt Q13822)
T1 construct: purchased R&D System
Test: Evaluation of autotaxin inhibitor, Method C (Test Example 3): 18:0 Lyso PC, choline assay, Resorufin fluorescence
Assay type: biochemical
Conditions: Assay Method C (Test Example 3), human autotaxin, 18:0 Lyso PC substrate; read-out: Inhibitory Activity (autotaxin enzyme inhibitory activity, IC50 class)
Experimental: (Method C) Evaluation of Autotaxin Inhibitor
Solution B containing 100 mM Tris-HCl buffer (pH7.5), 150 mM NaCl, 5 mM MgCl2 and 0.05% Triton X-100 was prepared. Human autotaxin enzyme (purchased from R&D System) was diluted with Solution B, and 2.5 μL of which was added to a solution of test compound in DMSO. Furthermore, 2.5 μl of 200 μM 18:0 Lyso PC (purchased from Avanti Polar Lipids) in Solution B was added and allowed to react at room temperature for 2 hours. After completion of the reaction, 15 μL of the coline assay reagent (100 mM Tris-HCl buffer (pH7.5), 5 mM MgCl2, 77 μg/mL choline oxidase, 10 μg/mL peroxidase, 25 μM 10-acetyl-3,7-dihydroxyphenoxazine and excess autotaxin inhibitor) was added and allowed to react at room temperature for 20 minutes. The fluorescent dye Resorufin, which was produced by the reaction, was detected. The fluorescence was detected using ViewLux (PerkinElmer, Inc.) with an excitation wavelength of 531 nm and a fluorescence wavelength of 598 nm.
The percent inhibition of the test compound was calculated by assuming the sample with no test compound as 0% inhibition and the sample with no enzyme as 100% inhibition, and the percent inhibitions at different concentrations of the test compound were plotted to obtain a concentration-dependent curve.

Row | Structure (SMILES) | IC50 [nM]
1 | CCn1c(N2C[C@H](O)C[C@H]2C(=O)NC(C)(C)C(=O)O)cc(=O)n2cc(-c3ccc(Cl)cc3)nc12 [Compound 765] | 100 to 1000
2 | CCCCCn1c(-c2ccc(S(C)(=O)=O)cc2)cc(=O)n2cc(-c3ccc(Cl)cc3)nc12 [Compound 433] | 10 to 100
3 | CCCCCn1c(N2CCC[C@H]2C(=O)NCCCN2CCCC2)cc(=O)n2cc(-c3ccc(Cl)cc3)nc12 [Compound 648] | > 1000
4 | CCCCCn1c(N2CCN(CCC(=O)c3ccc4[nH]c(=O)oc4c3)CC2)cc(=O)n2cc(-c3ccc(Cl)cc3)nc12 [Compound 190] | 10 to 100
5 | CCCCCn1c(OC2CN(CC(=O)OC(C)(C)C)C2)cc(=O)n2cc(-c3ccc(Cl)cc3)nc12 [Compound 574] | 10 to 100
6 | CCCCCn1c(-c2ccc(CO)cc2)cc(=O)n2cc(-c3ccc(Cl)cc3)nc12 [Compound 394] | 10 to 100
7 | CCn1c(N2C[C@H](O)C[C@H]2C(=O)NCC(=O)O)cc(=O)n2cc(-c3ccc(Cl)cc3)nc12 [Compound 762] | > 1000
8 | CCCCCn1c(N2CCC[C@H]2C(=O)NCC(=O)N(C)C)cc(=O)n2cc(-c3ccc(Cl)cc3)nc12 [Compound 699] | 100 to 1000
9 | CCCCCn1c(N2CCN(C(=O)OC(C)(C)C)C(C(=O)NCC(=O)O)C2)cc(=O)n2cc(-c3ccc(Cl)cc3)nc12 (centres unmarked) [Compound 627] | 100 to 1000
10 | CCCCCn1c(N2CCC[C@H]2C(=O)NCCC(=O)OC)cc(=O)n2cc(-c3ccc(Cl)cc3)nc12 [Compound 340] | 10 to 100
11 | CCCCCn1c(-c2ccc(C(=O)NCCCn3cc(-c4cccnc4)cn3)cc2)cc(=O)n2cc(-c3ccc(Cl)cc3)nc12 [Compound 520] | 10 to 100
12 | CCCCCn1c(-c2ccc(C(=O)NCc3ccc(S(C)(=O)=O)cc3)cc2)cc(=O)n2cc(-c3ccc(Cl)cc3)nc12 [Compound 519] | 10 to 100
13 | CCCCCn1c(N2CCC[C@H]2C(=O)N[C@H](C)C(=O)O)cc(=O)n2cc(-c3ccc(Cl)cc3)nc12 [Compound 678] | 10 to 100
14 | CCCCCn1c(N2C[C@@H](F)C[C@H]2C(=O)NCCC(=O)O)cc(=O)n2cc(-c3ccc(Cl)cc3)nc12 [Compound 580] | < 10
15 | CCCCCn1c(N2CCC[C@H]2C(=O)N(C)CC(N)=O)cc(=O)n2cc(-c3ccc(Cl)cc3)nc12 [Compound 704] | 10 to 100
16 | CCCCCn1c(-c2ccc(C(=O)NCC(C)=O)cc2)cc(=O)n2cc(-c3ccc(Cl)cc3)nc12 [Compound 500] | 10 to 100
17 | CCCCCn1c(-c2ccc(OC)nc2)cc(=O)n2cc(-c3ccc(Cl)cc3)nc12 [Compound 456] | 10 to 100
18 | CCCCCn1c(N2CCC[C@H]2C(=O)N[C@@H](CCCC)C(=O)O)cc(=O)n2cc(-c3ccc(Cl)cc3)nc12 [Compound 728] | < 10
19 | CCCCCn1c(-c2cnc(C(=O)OC)nc2)cc(=O)n2cc(-c3ccc(Cl)cc3)nc12 [Compound 532] | 10 to 100
20 | CCCCCn1c(N2CCC(c3ccccc3)C2)cc(=O)n2cc(-c3ccc(Cl)cc3)nc12 (centres unmarked) [Compound 327] | 100 to 1000
21 | CCCCCn1c(-c2ccc(C(=O)NC[C@H](O)CO)cc2)cc(=O)n2cc(-c3ccc(Cl)cc3)nc12 [Compound 486] | < 10
22 | CCCCCn1c(-c2ccc(C(=O)N(CCO)CCO)cc2)cc(=O)n2cc(-c3ccc(Cl)cc3)nc12 [Compound 467] | 10 to 100

Now from value to molecule:

Row | IC50 [nM] | Structure (SMILES)
23 | < 10 | CCCCCn1c(-c2ccc(C(=O)NC3COC3)cc2)cc(=O)n2cc(-c3ccc(Cl)cc3)nc12 [Compound 490]
24 | < 10 | CCCCCn1c(N2C[C@H](F)C[C@H]2C(=O)NC(C)(C)CC(=O)O)cc(=O)n2cc(-c3ccc(Cl)cc3)nc12 [Compound 583]
25 | 10 to 100 | CCCCCn1c(OC2CCN(CC(=O)O)CC2)cc(=O)n2cc(-c3ccc(Cl)cc3)nc12 [Compound 540]
26 | 10 to 100 | CCCCCn1c(-c2ccc(C(=O)NCC3CC3)cc2)cc(=O)n2cc(-c3ccc(Cl)cc3)nc12 [Compound 483]
27 | 10 to 100 | CCCCCn1c(-c2ccc(C(=O)NCCN)cc2)cc(=O)n2cc(-c3ccc(Cl)cc3)nc12 [Compound 364, N-(2-aminoethyl)-4-(2-(4-chlorophenyl)-5-oxo-8-pentyl-5,8-dihydroimidazo[1,2-a]pyrimidin-7-yl)benzamide]
28 | > 1000 | CCCCCn1c(N2CCNC[C@@H]2C(=O)O)cc(=O)n2cc(-c3ccc(Cl)cc3)nc12 [Compound 659]
29 | 10 to 100 | CCCCCn1c(-c2cccc(S(=O)(=O)N3CCOCC3)c2)cc(=O)n2cc(-c3ccc(Cl)cc3)nc12 [Compound 452]
30 | < 10 | CCCCCn1c(N2CCC[C@H]2C(=O)NCCC(=O)O)cc(=O)n2cc(-c3ccc(Cl)cc3)nc12 [Compound 326]
31 | 10 to 100 | CCn1c(N2C[C@H](O)C[C@H]2C(=O)N[C@@H](CCc2ccccc2)C(=O)O)cc(=O)n2cc(-c3ccc(Cl)cc3)nc12 [Compound 763]
32 | 100 to 1000 | CCCCCn1c(N2CCC3(CNC3)C2)cc(=O)n2cc(-c3ccc(Cl)cc3)nc12 [Compound 330]
33 | 100 to 1000 | CCCCCn1c(N2C[C@@H](F)C[C@H]2C(=O)O)cc(=O)n2cc(-c3ccc(Cl)cc3)nc12 [Compound 588]
34 | 100 to 1000 | CCCCCn1c(N2C[C@@H](O)C[C@H]2C(=O)O)cc(=O)n2cc(-c3ccc(Cl)cc3)nc12 [Compound 590]
35 | 100 to 1000 | CCCCCn1c(N2CCC[C@H]2C(=O)NCCN(C)C)cc(=O)n2cc(-c3ccc(Cl)cc3)nc12 [Compound 645]
36 | 10 to 100 | CCCCCn1c(-c2ccc(C(=O)NCc3ccco3)cc2)cc(=O)n2cc(-c3ccc(Cl)cc3)nc12 [Compound 506]
37 | 10 to 100 | CCn1c(N2CCC[C@H]2C(=O)NC(C)(C)C(=O)O)cc(=O)n2cc(-c3ccc(Cl)cc3)nc12 [Compound 759]
38 | 100 to 1000 | CCCCCn1c(O[C@H]2C[C@H](NC(=O)OC(C)(C)C)C2)cc(=O)n2cc(-c3ccc(Cl)cc3)nc12 [Compound 552]
39 | 100 to 1000 | CCCCCn1c(N2CCCC(CO)C2)cc(=O)n2cc(-c3ccc(Cl)cc3)nc12 (centres unmarked) [Compound 301]
40 | < 10 | CCCCCn1c(N2CCC[C@H]2C(=O)N[C@H](CC)C(=O)O)cc(=O)n2cc(-c3ccc(Cl)cc3)nc12 [Compound 739]
41 | > 1000 | CCCCCn1c(-c2ccc(CCCC)cc2)cc(=O)n2cc(-c3ccc(Cl)cc3)nc12 [Compound 442]
42 | > 1000 | CCCCCn1c(N2CCC[C@H]2C(=O)NCCCN(C)C)cc(=O)n2cc(-c3ccc(Cl)cc3)nc12 [Compound 646]
43 | 10 to 100 | CCCCCn1c(N2CCC(C(=O)N3CCCC3=O)CC2)cc(=O)n2cc(-c3ccc(Cl)cc3)nc12 [Compound 299]
44 | 10 to 100 | CCCCCn1c(N2CCC[C@H]2C(=O)NC2(CC(=O)OC)CCOCC2)cc(=O)n2cc(-c3ccc(Cl)cc3)nc12 [Compound 347]
45 | < 10 | CCCCCn1c(N2C[C@@H](O)C[C@H]2C(=O)N[C@@H](Cc2ccccc2)C(=O)O)cc(=O)n2cc(-c3ccc(Cl)cc3)nc12 [Compound 775]
46 | 10 to 100 | CCCCCn1c(-c2ccc(C(=O)N3CCN(C(C)=O)CC3)cc2)cc(=O)n2cc(-c3ccc(Cl)cc3)nc12 [Compound 474]
47 | < 10 | CCCCCn1c(OC2CN(CCC(=O)O)C2)cc(=O)n2cc(-c3ccc(Cl)cc3)nc12 [Compound 570]
48 | 10 to 100 | N#CCCCCn1c(NCc2ccc(C(=O)O)cc2)cc(=O)n2cc(-c3ccc(C#N)cc3)nc12 [Compound 288]
49 | 10 to 100 | CCCCCn1c(-c2ccc(C(=O)NCCC#N)cc2)cc(=O)n2cc(-c3ccc(Cl)cc3)nc12 [Compound 465]

Same assay, conditions: Assay Method C, human autotaxin, 18:0 Lyso PC substrate; read-out: Inhibitory Activity

Row | Structure (SMILES) | IC50 [nM]
50 | O=C(Cc1cn(CCCC(F)(F)F)c2nc(-c3ccc(Cl)cc3)cn2c1=O)NC1COC1 [Compound 846] | > 1000
51 | CONC(=O)Cc1cn(CCCC(F)(F)F)c2nc(-c3ccc(Cl)cc3)cn2c1=O [Compound 845] | 100 to 1000
52 | CCOC(=O)c1cccc(Cc2cn(CC3CC3)c3nc(-c4ccc(Cl)cc4)cn3c2=O)c1 [Compound 822] | > 1000
53 | CCCCCn1c(N2CCCCC2CCN2CCOCC2)cc(=O)n2cc(-c3ccc(Cl)cc3)nc12 (centres unmarked) [Compound 805] | 100 to 1000
54 | O=C(Cc1cn(CCCC(F)(F)F)c2nc(-c3ccc(Cl)cc3)cn2c1=O)NCC(O)CO (centres unmarked) [Compound 844] | > 1000

Next, values leading:

Row | IC50 [nM] | Structure (SMILES)
55 | > 1000 | CC(C)(O)CNC(=O)Cc1cn(CCCC(F)(F)F)c2nc(-c3ccc(Cl)cc3)cn2c1=O [Compound 857]
56 | 100 to 1000 | CCCCCn1c(N2CCC[C@H](C)C2)cc(=O)n2cc(-c3ccc(Cl)cc3)nc12 [Compound 812]
57 | > 1000 | CS(=O)(=O)CCNC(=O)Cc1cn(CCCC(F)(F)F)c2nc(-c3ccc(Cl)cc3)cn2c1=O [Compound 849]
58 | 10 to 100 | CCCCCn1c(N2CCC[C@H]2C(=O)Nc2nonc2OC)cc(=O)n2cc(-c3ccc(Cl)cc3)nc12 [Compound 794]
59 | > 1000 | CN(CC(O)CO)C(=O)Cc1cn(CCCC(F)(F)F)c2nc(-c3ccc(Cl)cc3)cn2c1=O (centres unmarked) [Compound 854]
60 | 100 to 1000 | CCCCCn1c(N2CCC[C@H]2C(=O)Nc2ccc(-c3nn[nH]n3)cc2)cc(=O)n2cc(-c3ccc(Cl)cc3)nc12 [Compound 784]
61 | 10 to 100 | O=C(Cc1cn(CCCC(F)(F)F)c2nc(-c3ccc(Cl)cc3)cn2c1=O)NCc1nn[nH]n1 [Compound 858]

Same assay, conditions: Assay Method: Method C (Test Example 3); read-out: Inhibitory Activity (Enzyme Inhibitory Activity, IC50)

Row | IC50 [nM] | Structure (SMILES)
62 | > 1000 | Cc1cc(=O)n2cc(-c3ccc(Cl)cc3)nc2n1CCCC(C)O (centres unmarked) [Compound 46]
